The values below are quoted from earlier work in patent publication US12564551B2, “Composition or oat extract comprising avenanthramide and β-glucan” (SYMRISE AG, priority 2020, dated 2026).

The structures appear in SMILES notation.

The conditions of this data set: Avn C, followed by Avn B and Avn A.

As for `O=C(C=Cc1ccc(O)c(O)c1)Nc1ccc(O)cc1C(=O)O` [Avn C, N-(3′,4′-dihydroxycinnamoyl)-5-hydroxyanthranilic acid], the “antioxidant activity, rank among Avns (in words)” value is “highest activity”.
